Biological target: human NaV 1.8 (Homo sapiens, UniProt Q9Y5Y9)
Assay: E-VIPR assay for detecting and measuring NaV inhibition properties
Format: cell-based
Conditions: E-VIPR assay conducted in the absence of human serum (compounds marked *); HEK cells expressing truncated human NaV 1.8; read-out: IC50
Outline: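 HEK cells with truncated human NaV1.8 plus KIR2.1 BacMam, hexyl dye loaded 20 min, compound 30 min at room temperature, 11-point 3-fold series […], 0.625% DMSO, with or without human serum. E-VIPR biphasic stimulation at 10 Hz for 10 s; membrane-potential response read as normalized coumarin/oxonol ratio.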

Chain of human NaV 1.8 (Q9Y5Y9 whole entry, looked up): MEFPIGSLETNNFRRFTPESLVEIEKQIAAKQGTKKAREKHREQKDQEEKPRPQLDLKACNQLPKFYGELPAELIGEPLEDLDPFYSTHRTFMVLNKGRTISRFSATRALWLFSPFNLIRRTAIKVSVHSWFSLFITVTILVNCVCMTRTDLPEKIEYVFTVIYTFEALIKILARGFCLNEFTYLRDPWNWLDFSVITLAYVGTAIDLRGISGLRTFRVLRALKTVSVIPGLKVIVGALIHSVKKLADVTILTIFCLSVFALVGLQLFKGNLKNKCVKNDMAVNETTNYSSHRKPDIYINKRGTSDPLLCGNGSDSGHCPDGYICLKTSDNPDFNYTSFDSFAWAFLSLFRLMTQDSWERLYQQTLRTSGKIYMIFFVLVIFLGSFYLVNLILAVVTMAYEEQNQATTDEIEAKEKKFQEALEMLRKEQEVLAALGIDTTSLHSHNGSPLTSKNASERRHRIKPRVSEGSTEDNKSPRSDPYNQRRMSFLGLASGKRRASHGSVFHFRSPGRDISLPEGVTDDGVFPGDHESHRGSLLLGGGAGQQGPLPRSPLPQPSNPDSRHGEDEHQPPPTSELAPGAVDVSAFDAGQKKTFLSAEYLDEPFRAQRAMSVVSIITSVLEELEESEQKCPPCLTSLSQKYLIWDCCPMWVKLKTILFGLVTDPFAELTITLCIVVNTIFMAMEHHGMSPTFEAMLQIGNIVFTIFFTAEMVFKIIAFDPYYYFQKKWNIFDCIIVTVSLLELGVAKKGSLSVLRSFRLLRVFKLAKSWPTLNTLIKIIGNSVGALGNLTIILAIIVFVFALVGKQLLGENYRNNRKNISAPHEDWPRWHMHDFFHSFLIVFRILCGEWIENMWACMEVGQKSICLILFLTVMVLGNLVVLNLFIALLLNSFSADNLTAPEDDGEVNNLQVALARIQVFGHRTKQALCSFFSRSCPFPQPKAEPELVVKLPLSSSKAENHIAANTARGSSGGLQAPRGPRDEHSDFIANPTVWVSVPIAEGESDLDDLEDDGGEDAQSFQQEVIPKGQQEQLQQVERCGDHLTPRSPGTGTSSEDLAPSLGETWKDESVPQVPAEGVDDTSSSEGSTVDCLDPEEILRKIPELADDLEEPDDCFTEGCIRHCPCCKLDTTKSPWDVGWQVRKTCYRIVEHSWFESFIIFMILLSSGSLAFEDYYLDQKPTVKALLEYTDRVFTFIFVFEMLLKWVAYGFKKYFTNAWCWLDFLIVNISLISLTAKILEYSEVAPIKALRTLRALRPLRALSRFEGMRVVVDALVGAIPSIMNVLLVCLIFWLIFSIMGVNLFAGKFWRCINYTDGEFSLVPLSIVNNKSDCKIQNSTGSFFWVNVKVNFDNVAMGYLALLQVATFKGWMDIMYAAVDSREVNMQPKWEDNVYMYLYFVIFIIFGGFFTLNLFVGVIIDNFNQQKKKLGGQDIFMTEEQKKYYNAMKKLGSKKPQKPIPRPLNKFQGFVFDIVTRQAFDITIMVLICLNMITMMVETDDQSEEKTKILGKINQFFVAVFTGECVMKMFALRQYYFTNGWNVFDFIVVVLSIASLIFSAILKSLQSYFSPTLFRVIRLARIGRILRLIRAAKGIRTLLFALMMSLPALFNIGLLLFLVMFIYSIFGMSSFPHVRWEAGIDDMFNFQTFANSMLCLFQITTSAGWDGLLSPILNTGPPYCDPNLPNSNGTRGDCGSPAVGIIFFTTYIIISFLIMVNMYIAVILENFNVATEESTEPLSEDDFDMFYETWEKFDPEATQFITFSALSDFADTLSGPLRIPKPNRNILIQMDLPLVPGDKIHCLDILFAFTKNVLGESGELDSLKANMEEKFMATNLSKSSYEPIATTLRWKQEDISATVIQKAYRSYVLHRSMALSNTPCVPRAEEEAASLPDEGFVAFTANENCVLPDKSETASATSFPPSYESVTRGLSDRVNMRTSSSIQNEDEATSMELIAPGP

IC50 | SMILES
44 nM | Cc1c(Oc2ccc(C(F)(F)F)cc2C(=O)Nc2ccnc(C(N)=O)c2)ccc(F)c1F [Compound 361, 4-[[2-(3,4-difluoro-2-methyl-phenoxy)-5-(trifluoromethyl)benzoyl]amino]pyridine-2-carboxamide]

Same assay, conditions: E-VIPR assay conducted in the presence of human serum; HEK cells expressing truncated human NaV 1.8; read-out: IC50

SMILES | IC50
[2H]C([2H])([2H])Oc1cc(OC(F)(F)F)ccc1Oc1cc(-c2ccc(OC)cc2)cc(F)c1C(=O)Nc1ccnc(C(N)=O)c1 [Compound 1007, 4-[[2-fluoro-4-(4-methoxyphenyl)-6-[2-(trideuteriomethoxy)-4-(trifluoromethoxy)phenoxy]benzoyl]amino]pyridine-2-carboxamide] | 170 nM
[2H]C([2H])([2H])Oc1cc(OC(F)(F)F)ccc1Oc1cc(C#CC2CCC2)cc(F)c1C(=O)Nc1ccnc(C(N)=O)c1 [Compound 1024] | 150 nM
Cc1c(C(F)(F)F)ccc(Oc2ccc(OC(F)(F)F)cc2C2CC2)c1C(=O)Nc1ccc(C(N)=O)nc1 [Compound 226, 5-[[6-[2-cyclopropyl-4-(trifluoromethoxy)phenoxy]-2-methyl-3-(trifluoromethyl)benzoyl]amino]pyridine-2-carboxamide] | 140 nM
[2H]C([2H])([2H])Oc1cc(OC(F)(F)F)ccc1Oc1c(C)cc(C(F)(F)F)cc1C(=O)Nc1ccnc(C(N)=O)c1 [Compound 1039, 4-[[3-methyl-2-[2-(trideuteriomethoxy)-4-(trifluoromethoxy)phenoxy]-5-(trifluoromethyl)benzoyl]amino]pyridine-2-carboxamide] | > 3000 nM
NC(=O)c1cc(NC(=O)c2ccc(C(F)(F)F)cc2Oc2ccc(F)cc2Cl)ccn1 [Compound 161, 4-[[2-(2-chloro-4-fluoro-phenoxy)-4-(trifluoromethyl)benzoyl]amino]pyridine-2-carboxamide] | > 3000 nM
NC(=O)c1ccc(NC(=O)c2c(Oc3c(F)cc(F)cc3F)ccc(C(F)(F)F)c2F)cn1 [Compound 212, 5-[[2-fluoro-3-(trifluoromethyl)-6-(2,4,6-trifluorophenoxy)benzoyl]amino]pyridine-2-carboxamide] | > 3000 nM
COc1cc(OC(F)(F)F)ccc1Oc1ccc(C(F)(F)F)c(OCCN(C)C)c1C(=O)Nc1ccnc(C(N)=O)c1 [Compound 1027] | > 3000 nM
COc1cc(F)ccc1-c1ccc(C(F)(F)F)cc1C(=O)Nc1ccnc(C(N)=O)c1 [Compound 252, 4-[[2-(4-fluoro-2-methoxy-phenyl)-5-(trifluoromethyl)benzoyl]amino]pyridine-2-carboxamide] | > 3000 nM
COc1cc(OC(F)(F)F)ccc1Oc1cc(C2CC2)c(C2CC2)nc1C(=O)Nc1ccc(C(N)=O)nc1 [Compound 205, N-(6-carbamoyl-3-pyridyl)-5,6-dicyclopropyl-3-[2-methoxy-4-(trifluoromethoxy)phenoxy]pyridine-2-carboxamide] | 1100 nM
NC(=O)c1ccc(NC(=O)c2c(Oc3ccc(OC(F)(F)F)c(F)c3)ccc(C(F)(F)F)c2F)cn1 [Compound 216, 5-[[2-fluoro-6-[3-fluoro-4-(trifluoromethoxy)phenoxy]-3-(trifluoromethyl)benzoyl]amino]pyridine-2-carboxamide] | 340 nM
COc1cc(Oc2ccc(C(F)(F)F)cc2C(=O)Nc2ccnc(C(N)=O)c2)ccc1F [Compound 16, 4-[[2-(4-fluoro-3-methoxy-phenoxy)-5-(trifluoromethyl)benzoyl]amino]pyridine-2-carboxamide] | > 3000 nM
NC(=O)c1cc(NC(=O)c2cc(C(F)(F)F)ccc2Oc2ccc(OC3CCCCC3)cc2)ccn1 [Compound 13, 4-[[2-[4-(cyclohexoxy)phenoxy]-5-(trifluoromethyl)benzoyl]amino]pyridine-2-carboxamide] | > 3000 nM

Continued, values first:

IC50 | SMILES
130 nM | COc1cc(OC(F)(F)F)ccc1Oc1ccc(C(F)(F)F)c(C2CC2)c1C(=O)Nc1ccnc(C(N)=O)c1 [Compound 281, 4-[[2-Cyclopropyl-6-[2-Methoxy-4-(Trifluoromethoxy)Phenoxy]-3-(Trifluoromethyl)Benzoyl]Amino]Pyridine-2-Carboxamide]
121 nM | COc1c(Oc2ccc(C(F)(F)F)c(C)c2C(=O)Nc2cc(C(N)=O)ccn2)ccc(OC(F)(F)F)c1F [Compound 313, 2-[[6-[3-fluoro-2-methoxy-4-(trifluoromethoxy)phenoxy]-2-methyl-3-(trifluoromethyl)benzoyl]amino]pyridine-4-carboxamide]
120 nM | COc1c(Oc2ccc(C(F)(F)F)c(C)c2C(=O)Nc2cc(C(N)=O)ncn2)ccc(OC(F)(F)F)c1F [Compound 315, 6-[[6-[3-fluoro-2-methoxy-4-(trifluoromethoxy)phenoxy]-2-methyl-3-(trifluoromethyl)benzoyl]amino]pyrimidine-4-carboxamide]
110 nM | COc1c(C(F)(F)F)ccc(Oc2ccc(OC(C)C)cc2)c1C(=O)Nc1ccnc(C(N)=O)c1 [Compound 53, 4-[[6-(4-isopropoxyphenoxy)-2-methoxy-3-(trifluoromethyl)benzoyl]amino]pyridine-2-carboxamide]
89 nM | COc1cc(OC(F)(F)F)ccc1Oc1cc(C(F)(F)F)nc(OC)c1C(=O)Nc1cc(C(N)=O)ncc1C [Compound 272, N-(2-carbamoyl-5-methyl-4-pyridyl)-2-methoxy-4-[2-methoxy-4-(trifluoromethoxy)phenoxy]-6-(trifluoromethyl)pyridine-3-carboxamide]
50 nM | Cc1c(F)ccc(Oc2ccc(C(F)(F)F)c(F)c2C(=O)Nc2ccnc(C(N)=O)c2)c1C [Compound 48, 4-[[2-fluoro-6-(4-fluoro-2,3-dimethyl-phenoxy)-3-(trifluoromethyl)benzoyl]amino]pyridine-2-carboxamide]
43 nM | CCOc1ccc(Oc2ccc(C(F)(F)F)c(F)c2C(=O)Nc2ccnc(C(N)=O)c2)cc1Cl [Compound 38, 4-[[6-(3-chloro-4-ethoxy-phenoxy)-2-fluoro-3-(trifluoromethyl)benzoyl]amino]pyridine-2-carboxamide]
40 nM | CCOc1ccc(Oc2ccc(C(F)(F)F)c(C)c2C(=O)Nc2ccnc(C(N)=O)c2)c(F)c1F [Compound 130, 4-[[6-(4-ethoxy-2,3-difluoro-phenoxy)-2-methyl-3-(trifluoromethyl)benzoyl]amino]pyridine-2-carboxamide]
37 nM | COc1cc(OC(F)(F)F)ccc1Oc1ccc(C(F)(F)F)c(C#N)c1C(=O)Nc1ccnc(C(N)=O)c1 [Compound 269, 4-[[2-cyano-6-[2-methoxy-4-(trifluoromethoxy)phenoxy]-3-(trifluoromethyl)benzoyl]amino]pyridine-2-carboxamide]
30 nM | COc1cc(OC(F)(F)F)ccc1Oc1ccc(C(F)(F)F)c(F)c1C(=O)Nc1cc(C(N)=O)[n+]([O-])cc1C [Compound 354, 4-[[2-fluoro-6-[2-methoxy-4-(trifluoromethoxy)phenoxy]-3-(trifluoromethyl)benzoyl]amino]-5-methyl-1-oxido-pyridin-1-ium-2-carboxamide]
25 nM | [2H]C([2H])([2H])Oc1cc(OC(F)(F)F)ccc1Oc1ccc(C(F)(F)F)c(C)c1C(=O)Nc1ccc(C(N)=O)nc1 [Compound 116, 5-[[2-methyl-6-[2-(trideuteriomethoxy)-4-(trifluoromethoxy)phenoxy]-3-(trifluoromethyl)benzoyl]amino]pyridine-2-carboxamide]
21 nM | COc1cc(OC(F)(F)F)ccc1Oc1cc(C2CCC(C(C)(C)C)CC2)cc(F)c1C(=O)Nc1ccnc(C(N)=O)c1 (single isomer, unassigned) [169 (second diastereomer), 4-[[4-(4-tert-butylcyclohexyl)-2-fluoro-6-[2-methoxy-4-(trifluoromethoxy)phenoxy]benzoyl]amino]pyridine-2-carboxamide]
19 nM | COc1cc(OC(F)(F)F)ccc1Oc1cc(C(F)(F)F)c(F)cc1C(=O)Nc1cc[n+]([O-])c(C(N)=O)c1 [Compound 279, 4-[[5-Fluoro-2-[2-Methoxy-4-(Trifluoromethoxy)Phenoxy]-4-(Trifluoromethyl)Benzoyl]Amino]-1-Oxido-Pyridin-1-Ium-2-Carboxamide]
14 nM | [2H]C([2H])([2H])Oc1cc(OC(F)(F)F)ccc1Oc1cc(C2CCCCC2)cc(F)c1C(=O)Nc1ccnc(C(N)=O)c1 [Compound 97]
11 nM | COc1cc(Oc2ccc(OC(F)(F)F)c(F)c2OC)c(C(=O)Nc2ccc(C(N)=O)nc2)c(F)c1C(F)(F)F [Compound 321, 5-[[2-fluoro-6-[3-fluoro-2-methoxy-4-(trifluoromethoxy)phenoxy]-4-methoxy-3-(trifluoromethyl)benzoyl]amino]pyridine-2-carboxamide]
9 nM | COc1cc(OC(F)(F)F)ccc1Oc1cc(-c2ccc(Cl)cc2)cc(F)c1C(=O)Nc1ccnc(C(N)=O)c1 [Compound 171, 4-[[4-(4-chlorophenyl)-2-fluoro-6-[2-methoxy-4-(trifluoromethoxy)phenoxy]benzoyl]amino]pyridine-2-carboxamide]
6 nM | COc1c(Oc2ccc(C(F)(F)F)c(C)c2C(=O)Nc2ccc(C(N)=O)nc2)ccc(OC(F)(F)F)c1F [Compound 224, 5-[[6-[3-fluoro-2-methoxy-4-(trifluoromethoxy)phenoxy]-2-methyl-3-(trifluoromethyl)benzoyl]amino]pyridine-2-carboxamide]
3.6 nM | COc1cc(OC(F)(F)F)ccc1Oc1cc(C(F)(F)F)c(C)c(F)c1C(=O)Nc1ccnc(C(N)=O)c1 [Compound 278, 4-[[2-Fluoro-6-[2-Methoxy-4-(Trifluoromethoxy)Phenoxy]-3-Methyl-4-(Trifluoromethyl)Benzoyl]Amino]Pyridine-2-Carboxamide]
1.7 nM | COc1cc(Oc2ccc(OC(F)(F)F)c(F)c2OC)c(C(=O)Nc2ccnc(C(N)=O)c2)c(F)c1Cl [Compound 324, 4-[[3-chloro-2-fluoro-6-[3-fluoro-2-methoxy-4-(trifluoromethoxy)phenoxy]-4-methoxy-benzoyl]amino]pyridine-2-carboxamide]

Source: patent US12441703B2, “Carboxamides as modulators of sodium channels” (VERTEX PHARMACEUTICALS INCORPORATED, priority 2019, dated 2025)
